Assay results: ChEMBL document CHEMBL1141053, “Synthesis and SAR of novel oxazolidinones: discovery of ranbezolid” (2005)
Converted amounts (≈) assume the structure as drawn.

Legend:
Format in all cases: functional
Staphylococcus aureus [1] = assay: In vitro minimum inhibitory concentration against methicillin-resistant Staphylococcus aureus 562 after incubation in air at 35 degree C for 24 hr using agar dilution method
Staphylococcus aureus [2] = assay: In vitro minimum inhibitory concentration against Staphylococcus aureus ATCC 25923 after incubation in air at 35 degree C for 24 hr using agar dilution method; settings: ATCC 25923, 24 h
Enterococcus faecalis = assay: In vitro minimum inhibitory concentration against Enterococcus faecalis ATCC 29212 after incubation in air at 35 degree C for 24 hr using agar dilution method; settings: ATCC 29212, 24 h
Streptococcus pneumoniae = assay: In vitro minimum inhibitory concentration against Streptococcus pneumoniae ATCC 6303 after incubation in air at 35 degree C for 24 hr using agar dilution method; settings: ATCC 6303, 24 h
Streptococcus pyogenes = assay: In vitro minimum inhibitory concentration against Streptococcus pyogenes ATCC 19615 after incubation in air at 35 degree C for 24 hr using agar dilution method; settings: ATCC 19615, 24 h
Enterococcus faecium = assay: In vitro minimum inhibitory concentration against vancomycin-resistant Enterococcus faecium 6A after incubation in air at 35 degree C for 24 hr using agar dilution method
Staphylococcus aureus [3] = assay: In vivo effective dose (on day 7-post-infection) against methicillin-resistant Staphylococcus aureus 562 infected mice upon peroral administration at 30 min and 4 hr post-infection; settings: po
Escherichia coli [4] = assay: Minimum inhibitory concentration against […] AB pump deficient Escherichia coli strain
Escherichia coli [5] = assay: Minimum inhibitory concentration against Tol C pump deficient Escherichia coli strain
Escherichia coli [6] = assay: Minimum inhibitory concentration against wild-type Escherichia coli strain

Compound | MIC (Staphylococcus aureus [1]) [µg/mL] | MIC (Staphylococcus aureus [2]) [µg/mL] | MIC (Enterococcus faecalis) [µg/mL] | MIC (Streptococcus pneumoniae) [µg/mL] | MIC (Streptococcus pyogenes) [µg/mL] | MIC (Enterococcus faecium) [µg/mL] | ED50 (Staphylococcus aureus [3]) [mg/kg] | MIC (Escherichia coli [4]) [µg/mL] | MIC (Escherichia coli [5]) [µg/mL] | MIC (Escherichia coli [6]) [µg/mL]
CC(=O)NC[C@H]1CN(c2ccc(N3CCN(Cc4ccc(C=O)o4)CC3)c(F)c2)C(=O)O1 | 1 (≈ 2.25 µM) | 1 (≈ 2.25 µM) | 8 (≈ 18 µM) | 4 (≈ 9 µM) | 8 (≈ 18 µM) | 8 (≈ 18 µM) | > 25 | – | – | –
CC(=O)NC[C@H]1CN(c2ccc(N3CCN(Cc4ccc(C#N)o4)CC3)c(F)c2)C(=O)O1 | 16 (≈ 36.2 µM) | 16 (≈ 36.2 µM) | 16 (≈ 36.2 µM) | 16 (≈ 36.2 µM) | 16 (≈ 36.2 µM) | 16 (≈ 36.2 µM) | – | – | – | –
CC(=O)NC[C@H]1CN(c2ccc(N3CCN(Cc4ccoc4[N+](=O)[O-])CC3)c(F)c2)C(=O)O1 | 4 (≈ 8.67 µM) | 8 (≈ 17.3 µM) | 4 (≈ 8.67 µM) | 1 (≈ 2.17 µM) | 1 (≈ 2.17 µM) | 4 (≈ 8.67 µM) | – | – | – | –
CC(=O)NC[C@H]1CN(c2ccc(N3CCC(N(C)c4ccc([N+](=O)[O-])o4)C(C)C3)c(F)c2)C(=O)O1 (stereo not given in full) | > 16 | > 16 | > 16 | > 16 | > 16 | > 16 | – | – | – | –
CC(=O)NC[C@H]1CN(c2ccc(N3CCN(Cc4ccc([N+](=O)[O-])o4)CC3)c(F)c2)C(=O)O1.Cl [RANBEZOLID CHLORIDE] | 1 | 1 | 2 | 0.125 | 0.125 | 2 | – | 2 | 2 | ≤ 16
CC(=O)NC[C@H]1CN(c2ccc(N3CCN(Cc4ccc(CO)o4)CC3)c(F)c2)C(=O)O1 | > 16 | > 16 | > 16 | > 16 | > 16 | > 16 | – | – | – | –
CC(=O)NC[C@H]1CN(c2ccc(N3CCC(N(C)c4ccc([N+](=O)[O-])o4)CC3)c(F)c2)C(=O)O1 | 0.5 (≈ 1.05 µM) | 1 (≈ 2.1 µM) | 0.25 (≈ 0.526 µM) | 0.5 (≈ 1.05 µM) | 0.125 (≈ 0.263 µM) | 0.5 (≈ 1.05 µM) | 7.43 | – | – | –
CC(=O)NC[C@H]1CN(c2ccc(N3CCN(Cc4ccc([N+](=O)[O-])[nH]4)CC3)c(F)c2)C(=O)O1 | 4 (≈ 8.69 µM) | 4 (≈ 8.69 µM) | 4 (≈ 8.69 µM) | 4 (≈ 8.69 µM) | 1 (≈ 2.17 µM) | 4 (≈ 8.69 µM) | – | – | – | –
CC(=O)NC[C@H]1CN(c2ccc(N3C[C@@H](C)N(Cc4ccc([N+](=O)[O-])o4)[C@@H](C)C3)c(F)c2)C(=O)O1 | 8 (≈ 16.3 µM) | 16 (≈ 32.7 µM) | 8 (≈ 16.3 µM) | 16 (≈ 32.7 µM) | 16 (≈ 32.7 µM) | 8 (≈ 16.3 µM) | – | – | – | –
CC(=O)NC[C@H]1CN(c2ccc(N3CCN(Cc4ccc(Cl)o4)CC3)c(F)c2)C(=O)O1 | > 16 | > 16 | > 16 | > 16 | > 16 | > 16 | – | – | – | –
CC(=O)NC[C@H]1CN(c2ccc(N3CCN(Cc4ccc(/C=N/N)o4)CC3)c(F)c2)C(=O)O1 | 1 (≈ 2.18 µM) | 2 (≈ 4.36 µM) | 8 (≈ 17.4 µM) | 8 (≈ 17.4 µM) | 8 (≈ 17.4 µM) | 8 (≈ 17.4 µM) | – | – | – | –
CC(=O)NC[C@H]1CN(c2ccc(N3CCN(Cc4ccc(COC(C)=O)o4)CC3)c(F)c2)C(=O)O1 | > 16 | > 16 | > 16 | > 16 | > 16 | > 16 | – | – | – | –
CC(=O)NC[C@H]1CN(c2ccc(N3CCN(Cc4ccco4)CC3)c(F)c2)C(=O)O1 | 8 (≈ 19.2 µM) | 8 (≈ 19.2 µM) | 8 (≈ 19.2 µM) | 8 (≈ 19.2 µM) | 4 (≈ 9.6 µM) | 8 (≈ 19.2 µM) | > 25 | – | – | –
CC(=O)NC[C@H]1CN(c2ccc(N3CCN(Cc4ccc([N+](=O)[O-])o4)CC3C)c(F)c2)C(=O)O1 (stereo not given in full) | 2 (≈ 4.21 µM) | 4 (≈ 8.41 µM) | 4 (≈ 8.41 µM) | 8 (≈ 16.8 µM) | 4 (≈ 8.41 µM) | 4 (≈ 8.41 µM) | – | – | – | –
